We go through 2 compounds from paper PMC8476755 (Frontiers in Chemistry, 2021).

What all share (assay): [3H]GABA uptake assay, transient expression in tsA201 cells
Holding throughout (format): cell-based

In experiment [1] the target is T1, BGT1 E52A + Q299L (Homo sapiens, UniProt P48065, E52A/Q299L).
T1 construct: expressed in transfected cells; host or cells: tsA201 (transformed HEK293), transient
T1 sequence (P48065 1-614 E52A/Q299L): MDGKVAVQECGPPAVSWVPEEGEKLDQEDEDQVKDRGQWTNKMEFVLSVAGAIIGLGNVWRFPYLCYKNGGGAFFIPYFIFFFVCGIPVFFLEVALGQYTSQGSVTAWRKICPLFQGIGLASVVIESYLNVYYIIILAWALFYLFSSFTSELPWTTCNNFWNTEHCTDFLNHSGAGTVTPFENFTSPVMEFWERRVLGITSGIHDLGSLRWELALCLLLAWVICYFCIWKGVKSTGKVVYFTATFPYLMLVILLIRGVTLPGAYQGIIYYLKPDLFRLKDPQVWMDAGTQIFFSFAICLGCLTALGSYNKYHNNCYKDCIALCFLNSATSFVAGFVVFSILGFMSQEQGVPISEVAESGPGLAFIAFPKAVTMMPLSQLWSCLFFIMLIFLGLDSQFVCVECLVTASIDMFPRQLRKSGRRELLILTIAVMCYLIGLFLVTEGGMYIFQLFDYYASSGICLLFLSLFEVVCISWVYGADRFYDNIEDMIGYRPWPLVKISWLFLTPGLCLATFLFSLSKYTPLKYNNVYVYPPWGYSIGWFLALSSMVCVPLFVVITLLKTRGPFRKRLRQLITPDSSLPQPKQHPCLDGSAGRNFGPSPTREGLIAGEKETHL
To be noted: for IC50: BGT1 E52A + Q299L, tsA201 cells (2: only n = 2). The method, then: (§1) The residue Q299 in human BGT1 corresponds to leucine in all other GATs (human, rat, mouse), while E52 corresponds to tyrosine in GAT1 (human, rat, mouse) but is conserved among GAT2, GAT3 and BGT1 (human, rat, mouse) (Figure 6A) ([Kickinger et al., 2019]).
(§2) The tsA201 cell line (a transformed HEK293 cell line), the Flp-In CHO cell lines stably expressing human (h) GATs and the HEK293 cell line stably expressing human α1β2γ2 GABAA receptors have been described previously and were cultured accordingly ([Al-Khawaja et al., 2014]; [Falk-Petersen et al., 2020]). The tsA201 cell line used for transient expression of hGATs was transfected with DNA constructs (8 μg per 10 cm plate) using 40 μL PolyFect transfection reagent according to the manufacturer’s protocol (Qiagen).
(§3) Briefly, cells were seeded in white 96-well plates (White Opaque Tissue Culture (TC) plated 96-well Microplate) pre-coated with PDL. Medium was removed on the following day and cells washed with 100 µL/well assay buffer (HBSS supplemented with 20 mM HEPES, 1 mM CaCl2 and 1 mM MgCl2, pH 7.4). […] The cells were washed 3 times with 100 µL/well ice-cold assay buffer, 150 µL/well MicroScint™20 was subsequently added before the plate was shaken for at least 1 h. The plate was counted in a Packard TopCounter microplate scintillation counter (PerkinElmer) for 3 min per well. […] Data presented is the pooled data of at least three independent experiments with three technical replicates if not stated otherwise in figure legends. Concentration–response curves were fitted by non-linear regression to the sigmoidal concentration-response model with GraphPad Prism (version 9.0.0, GraphPad Software, San Diego, CA, United States) as described ([Lie et al., 2020]).

Experiment [2] addresses T2, BGT1 E52Y (Homo sapiens, UniProt P48065, E52Y).
T2 construct: expressed in transfected cells; host or cells: tsA201 (transformed HEK293), transient
T2 sequence (P48065 1-614 E52Y): T1 sequence (P48065 1-614 E52A/Q299L) with A52Y, L299Q
To be noted: for IC50: BGT1 E52Y, tsA201 cells. The method, then: as §1, §2, §3

In experiment [3] the target is T3, BGT1 E52A (Homo sapiens, UniProt P48065, E52A).
T3 construct: expressed in transfected cells; host or cells: tsA201 (transformed HEK293), transient
T3 sequence (P48065 1-614 E52A): T1 sequence (P48065 1-614 E52A/Q299L) with L299Q
To be noted: for Increase in activity compared to wildtype: BGT1 E52A vs BGT1 wt; for IC50: BGT1 E52A. Here is the method: as §1, §2, §3

Residue numbers refer to the chain shown, from its start. Where two headings read alike, the source gives them in different places.

With `CN[C@@]12CC[C@H](C(=O)O)[C@@H]1C2` [compound 2], the IC50 is 44 µM in experiment [1] (read-out: IC50), 31.6 µM in experiment [1] (read-out: pIC50 ± S.E.M. (converted)), 20 µM in experiment [2] and 0.12 µM in experiment [3] (tsA201 cells). Besides, the “Increase in activity compared to wildtype” value in experiment [3] came to 82 times.

With `N[C@@]12CC[C@H](C(=O)O)[C@@H]1C2` [bicyclo-GABA, (1S,2S,5R)-5-aminobicyclo[3.1.0]hexane-2-carboxylic acid], the IC50 is 41 µM in experiment [1] (read-out: IC50), 11 µM in experiment [2], ~0.04 µM in experiment [3] and 0.04 µM in experiment [3] (tsA201 cells). In addition, the “Decrease in inhibitory activity compared to wildtype” value in experiment [1] (BGT1 Q299L + E52A vs BGT1 wt) stood at 27 times; in experiment [2] (BGT1 E52Y vs BGT1 wt) it was 7 times. In addition, in experiment [3], the “Increase in activity compared to wildtype” value was 38 times.
